# Publication PMC10683482, “Offsetting Low-Affinity Carbohydrate Binding with Covalency to Engage Sugar-Specific Proteins for Tumor-Immune Proximity Induction” (ACS Central Science, 2023)
# Key:
# Hek-PSMA cells = experiment: ADCC reporter (jurkat activation) assay directly in polyclonal human IgG (Figure 5C); type: cell-based; settings: 9 μM compound with 230 μM human IgG 24 h, no column step
# Method: (§1) Figure 5 Functional analysis of PSMA-targeting SuFEx cARMs. A. Chemical structure of the functional GU cARM molecule used for PSMA targeting. B. Confocal (top) and fluorescent imaging (bottom) of Hek-PSMA cells treated with anti-23F only or anti-23F antibody pre-incubated with rhamnose-SO2F-cARM 14. C. Jurkat activation assay evaluation of 14 directly in polyclonal human IgG. Each cARM/ARM (9 μM) was incubated with polyclonal human IgG (230 μM) overnight and then added to pre-plated Hek-P cells (50,000 cells). To this cell solution, luciferase expressing jurkat cells were added and incubated for 24 hours. Activation of jurkat cells was determined by measuring luciferase expression with a BioGlo assay kit. D. ADCP assays using various PSMA-expressing model and bonafide cancer cell lines. Each cARM/ARM (8 μM) was incubated with anti-23F (4 μM) overnight followed by addition to target cells (150,000 cells). Next, IFN-γ activated monocytes (150,000 cells) were added and incubated for 1 hour at 37 °C. ADCP was determined via flow cytometry.
# Next, the capacity of alkyl-AI-cARM 10, alkyl-ARM 11, and SO2F-cARM 14 to direct immune activation via polyclonal anti-rhamnose antibodies was evaluated using a modified ADCC reporter assay (Figure 5C). ADCC represents a major mode of antitumor NK cell immunotherapeutic function, common to many FDA-approved monoclonal antibody therapies. […]
# [1] = test system: PSMA-expressing target cells (Hek-PSMA, LNCaP, C4-2); experiment: ADCP assay with anti-23F and U937 monocytes; type: cell-based, human; settings: 8 μM compound with 4 μM anti-23F 24 h; 1 h, 37 °C; flow cytometry
# Method: as §1
# Finally, the capacity of Rha-cARMs to induce ADCP of multiple target cell lines (varying in PSMA expression) was evaluated. ADCP represents a major mode of antitumor monocyte/macrophage immunotherapeutic function, also invoked by several FDA-approved monoclonal antibody therapies. […]
Structure (SMILES),jurkat (immune) activation (Hek-PSMA cells),induction of ADCP [1]
C[C@@H]1O[C@@H](OCc2cn(CCc3cn(C(=O)OCCNC(=O)CCCCCNC(=O)CCCCCNC(=O)CCCCCNC(=O)NCCCC[C@H](NC(=O)N[C@@H](CCC(=O)O)C(=O)O)C(=O)O)cn3)nn2)[C@H](O)[C@H](O)[C@H]1O [compound 10],failed to direct immune activation,nonfunctional
C[C@@H]1O[C@@H](OCc2cn(CCCNC(=O)OCCNC(=O)CCCCCNC(=O)CCCCCNC(=O)CCCCCNC(=O)NCCCC[C@H](NC(=O)N[C@@H](CCC(=O)O)C(=O)O)C(=O)O)nn2)[C@H](O)[C@H](O)[C@H]1O [compound 11],failed to direct immune activation,failure
